Test results as given in patent US9216171B2, “Methods of preventing ischemic injury using peripheral nociceptive stimulation” (University of Cincinnati, priority 2009, dated 2015).

Key:
Format in all cases: in vivo
[1] = system: murine ischemia/reperfusion model of myocardial infarction; experiment: Mouse ischemia/reperfusion model: infarct size after remote topical TRP agonist
Experimental: A previously described mouse model of ischemia and reperfusion (I/R) injury in vivo was used (Ren et al. (2004) J. Surg Res. 121(1):120-129; Fan et al (2005) Circulation 111(14):1792-1799; Zhou et al (2007) Cardiovascular Research 75(3) 487-497; and Diwan et al (2007) J. Clinical Investigation 117(10):2825-2833, herein incorporated by reference in their entirety). Mice were anesthetized with sodium pentobarbital (90 mg/kg ip), intubated with PE 90 tubing and ventilated using a mouse miniventilator (Harvard Apparatus, Holliston, Mass.). All mice were continuously monitored by electrocardiography ([…] Sinus Rhythm Analyzer, Micro-Med Inc), and mice without evidence of ischemia and timely reperfusion were excluded from the studies. A lateral thoracotomy (1.5 cm incision between the second and third ribs was performed to provide exposure of the left anterior descending coronary artery (LAD). Vascular bundles in the vicinity were coagulated using a microcoagulator (Medical Industries Inc, St. Petersburg Fla.). An 8-0 nylon suture was placed around the LAD 2-3 mm from the tip of the left auricle and a piece of soft silicon tubing (0.64 mm ID, 1.19 mm OD) was placed over the artery. Coronary occlusion was achieved by tightening and tying the suture. Coronary occlusion was for 45 minutes, unless indicated otherwise. At the end of the occlusion, the suture was untied and left in place. Ischemia was confirmed by visual observation of cyanosis and by continuous ECG monitoring (QRS complex widening, T wave inversion and ST segment changes); reperfusion was confirmed by reversal of these effects. Results of one such experiment are presented in FIG. 1, panel A. Mice were euthanized either 4 or 24 hours after reperfusion and infarct size determination and imaging were performed by previously described methods (Ren et al. (2004) J. Surg Res. 121(1):120-129 and Guo et al (1998) Am J. Physiology 275 (4 Pt 2):[…]-1387, herein incorporated by reference in their entirety). Mice were anesthetized with pentobarbital sodium (35 mg/kg iv) and euthanized with an intravenous bolus of KCl. The heart was excised and perfused with Krebs-Henseleit solution through an aortic cannula (22 or 23-gauge needle) using a Langerdorff apparatus. To delineate infarcted from viable myocardium, the heart was then perfused with a 1% solution of 2,3,5-triphenyltetrazolium chloride (TTC) in phosphate buffer (pH 7.4, 37° C.) at a pressure of […] (approx. 3 ml over 3 min). […] Infarct size was determined by the method of Fishbein et al (1981) Am Heart J 101(5):593-600, herein incorporated by reference in its entirety. […] Infarct size was determined as described elsewhere herein. […]

[2] = target: T1, TRPV1 (Mus musculus, UniProt Q704Y3); experiment: Topical capsaicin before ischemia/reperfusion in wild-type vs TRPV1 knock-out mice; settings: capsaicin topically administered to the abdomen prior to ischemia and reperfusion; FIG. 2E
T1 construct: data from wild-type mice topically treated with capsaicin administered to the abdomen prior to surgical induction of ischemia and reperfusion; from tissue; host or cells: Living wild-type mouse; abdominal skin nociceptors (C-fibers), in vivo
From the text: FIG. 2, panel E presents a graph of results obtained from wild-type (WT) and TRPV1 knock-out (TRPVKO) mice using topical capsaicin as the cardioprotective stimulus. Infarct size as a percent of risk region is presented on the y-axis. The first bar presents data from wild-type mice topically treated with capsaicin administered to the abdomen prior to surgical induction of ischemia and reperfusion (WT, Capsaicin, hatched bar). The second bar presents data from TRPV1 knockout mice topically treated with capsaicin administered to the abdomen prior to surgical induction of ischemia and reperfusion (TRPVKO, Capsaicin, dotted bar). The third bar presents data from TRPV1 knockout mice subjected to sham treatment prior to surgical induction of ischemia and reperfusion (TRPVKO No capsaicin, empty bar).
Mice were anesthetized with sodium pentobarbital (90 mg/kg ip), intubated with PE 90 tubing and ventilated using a mouse miniventilator (Harvard Apparatus, Holliston, Mass.). All mice were continuously monitored by electrocardiography (ECG) (DigiMed Sinus Rhythm Analyzer, Micro-Med Inc), and mice without evidence of ischemia and timely reperfusion were excluded from the studies. […]

[3] = system: murine ischemia/reperfusion model of myocardial infarction; experiment: Blockade of the cardioprotection by remote electrical stimulation in mouse ischemia/reperfusion model
Experimental: A previously described mouse model of ischemia and reperfusion (I/R) injury in vivo was used (Ren et al. (2004) J. Surg Res. 121(1):120-129; Fan et al (2005) Circulation 111(14):1792-1799; Zhou et al (2007) Cardiovascular Research 75(3) 487-497; and Diwan et al (2007) J. Clinical Investigation 117(10):2825-2833, herein incorporated by reference in their entirety). Mice were anesthetized with sodium pentobarbital (90 mg/kg ip), intubated with PE 90 tubing and ventilated using a mouse miniventilator (Harvard Apparatus, Holliston, Mass.). All mice were continuously monitored by electrocardiography (ECG) (DigiMed Sinus Rhythm Analyzer, Micro-Med Inc), and mice without evidence of ischemia and timely reperfusion were excluded from the studies.
A lateral thoracotomy (1.5 cm incision between the second and third ribs was performed to provide exposure of the left anterior descending coronary artery (LAD). Vascular bundles in the vicinity were coagulated using a microcoagulator (Medical Industries Inc, St. Petersburg Fla.). An 8-0 nylon suture was placed around the LAD 2-3 mm from the tip of the left auricle and a piece of soft silicon tubing (0.64 mm ID, 1.19 mm OD) was placed over the artery. Coronary occlusion was achieved by tightening and tying the suture. Coronary occlusion was for 45 minutes, unless indicated otherwise. At the end of the occlusion, the suture was untied and left in place. Ischemia was confirmed by visual observation of cyanosis and by continuous ECG monitoring (QRS complex widening, T wave inversion and ST segment changes); reperfusion was confirmed by reversal of these effects.
Mice were euthanized either 4 or 24 hours after reperfusion and infarct size determination and imaging were performed by previously described methods (Ren et al. (2004) J. Surg Res. 121(1):120-129 and Guo et al (1998) Am J. Physiology 275 (4 Pt 2):H1375-1387, herein incorporated by reference in their entirety). Mice were anesthetized with pentobarbital sodium (35 mg/kg iv) and euthanized with an intravenous bolus of KCl. The heart was excised and perfused with Krebs-Henseleit solution through an aortic cannula (22 or 23-gauge needle) using a Langerdorff apparatus. To delineate infarcted from viable myocardium, the heart was then perfused with a 1% solution of 2,3,5-triphenyltetrazolium chloride (TTC) in phosphate buffer (pH 7.4, 37° C.) at a pressure of […] (approx. 3 ml over 3 min). To delineate the occluded-reperfused coronary vascular bed, the coronary artery was then tied at the site of the previous occlusion and the aortic root was perfused with a 5% solution of phthalo blue dye in normal saline. […] Infarct size was determined by the method of Fishbein et al (1981) Am Heart J 101(5):593-600, herein incorporated by reference in its entirety. […]

T1 sequence (Q704Y3 whole entry, the tested form may be a part): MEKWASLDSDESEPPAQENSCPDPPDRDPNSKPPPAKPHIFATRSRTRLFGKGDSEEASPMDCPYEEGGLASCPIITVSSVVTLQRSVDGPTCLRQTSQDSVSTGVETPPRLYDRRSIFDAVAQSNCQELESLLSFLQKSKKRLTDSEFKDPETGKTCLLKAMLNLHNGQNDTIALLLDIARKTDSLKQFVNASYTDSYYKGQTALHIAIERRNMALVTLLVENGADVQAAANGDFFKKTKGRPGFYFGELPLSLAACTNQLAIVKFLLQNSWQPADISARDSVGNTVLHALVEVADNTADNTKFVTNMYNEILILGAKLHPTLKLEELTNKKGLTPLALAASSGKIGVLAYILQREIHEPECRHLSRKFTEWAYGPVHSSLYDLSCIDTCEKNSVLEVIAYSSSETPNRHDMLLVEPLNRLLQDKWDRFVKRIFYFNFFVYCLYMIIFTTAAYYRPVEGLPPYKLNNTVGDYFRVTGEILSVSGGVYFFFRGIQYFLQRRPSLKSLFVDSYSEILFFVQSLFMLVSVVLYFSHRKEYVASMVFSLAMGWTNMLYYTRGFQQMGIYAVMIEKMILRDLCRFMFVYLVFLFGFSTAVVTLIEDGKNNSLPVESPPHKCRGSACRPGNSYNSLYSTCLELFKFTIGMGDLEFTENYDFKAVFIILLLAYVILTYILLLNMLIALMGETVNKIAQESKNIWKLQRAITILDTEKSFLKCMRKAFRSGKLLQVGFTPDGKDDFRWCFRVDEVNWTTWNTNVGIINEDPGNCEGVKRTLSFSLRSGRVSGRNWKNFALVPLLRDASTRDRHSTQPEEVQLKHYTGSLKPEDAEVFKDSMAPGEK

COc1cc(CNC(=O)CCCC/C=C/C(C)C)ccc1O [capsaicin, (6E)-N-[(4-Hydroxy-3-methoxyphenyl)methyl]-8-methyl-6-nonenamide]
reduction of infarct size (infarct size as a percent of the risk region) ([1]; remote pre-conditioning, stimulus given 15 minutes prior to the ischemia, abdominal topical, vs sham, n=6, P<0.01): 85%
infarct size as a percent of the risk region ([1]; remote pre-treatment prior to ischemia/reperfusion, vs sham, FIG. 1C): substantial reduction in infarct size
infarct size as a percent of risk area ([1]; topical application during ischemia (conditioning) or after reperfusion (postCON), vs sham, p<0.01, FIG. 10): significantly reduces infarct size
infarct size as a percent of risk region, WT vs TRPVKO [2]: reduced myocardial infarct size as compared to TRPVKO mice

COc1ccc2c(c[n+](C)c3c4cc5c(cc4ccc23)OCO5)c1OC [chelerythrine]
inhibition of ischemia-related tissue damage (infarct size as a percentage of risk region) ([3]; chelerythrine plus ES vs vehicle plus ES, FIG. 3C): reduced inhibition of ischemia-related tissue damage

CCN(CC)CC(=O)Nc1c(C)cccc1C [lidocaine]
infarct size as a percent of risk region ([3]; 2% lidocaine prior to electrical stimulation (ES) and ischemia, vs vehicle ES, FIG. 2A): significantly higher percentage of risk region than infarction size in vehicle and ES treated mice
cardioprotective effect of the remote electrical stimulation ([3]; 10 μl lidocaine (2%) s.c. pre-treatment, 45 min occlusion): no significant cardioprotection relative to controls

CCCN(CCC)S(=O)(=O)c1ccc(C(=O)O)cc1 [probenecid]
infarct size as a percent of risk region ([1]; topical probenecid application vs sham/control animals, p<0.07, FIG. 11): significantly reduced

CC(C)NCC(O)COc1cccc2ccccc12 (stereo not drawn) [propanolol]
infarct size as a percentage of risk region ([3]; propanolol plus ES vs vehicle plus ES, FIG. 3B): significantly higher than infarct size in control mice treated only with the vehicle and electrically stimulated
